Key:
[1] = test system: MPTP model in monkeys (macaques); assay: Progressive MPTP primate model, pilot study; type: in vivo
Description: In the MPTP model used, which reflects the progressive course of dopaminergic cell destruction in primates, monkeys (macaques) were injected with subthreshold toxic doses of MPTP over several days. The parkinsonian symptoms developed in the model over a period of approximately 2 weeks. As soon as a specific degree of damage was reached, daily injections of rotigotine were provided in a formulation giving rise to a continuous plasma level over a 24 hour period. The injections of MPTP were stopped as soon as the motor activity in the controls had reduced by a specific degree (approximately 5 days later). The animals' behavior was evaluated every day. […] At the end of rotigotine application or at the end of the wash-out phase, in each case one group of animals was sacrificed and the condition of the basal ganglia investigated histologically and biochemically. The density of the nerve endings in the striatum of the treated animals was much higher than it was in the untreated animals.

[2] = transdermal administration, WO 02/089777 and other authors; cited from earlier work
[3] = test system: MPTP mouse model; assay: Acute MPTP model, FluoroJade staining of degenerating neurons; type: in vivo, mice; conditions: for Number of degenerating neurons: FluoroJade staining
Description: The results set forth below in Table 2 indicate the number of acutely degenerating neurons in the MPTP mouse model shown with FluoroJade staining with and without treatment with a single administration of rotigotine:
To induce intoxication, mice were administered 80 mg/kg of the neurotoxin 1-methyl-4-phenyl-1,2,3,6-tetrahydro-pyridine (MPTP) (in portions of 20 mg/kg at two-hourly intervals) resulting in the degeneration of approximately 50-60% of the neurons in the substantia nigra. Approximately 16 hours previously, rotigotine was added in doses of 0.3, 1 or 3 mg/kg respectively as a so-called ‘slow-release formulation’ (see embodiment 2). Diffusion and absorption latencies mean that rotigotine is optimally available when MPTP is added. Animals that were only given the vehicle solution (see embodiment 2 without rotigotine HCl) served as controls. After 24 hours, the animals were sacrificed and the brains fixed. The brain sections were stained with FluoroJade for the identification of degenerating cells. Immunohistochemical marking of the tyrosine hydroxylase was used to identify dopaminergic neurons. […] The number of the degenerating neurons was approximately 50% lower after the application of rotigotine, which is further confirmation of the neuroprotective properties of the substance (Table 2).

[4] = test system: MPTP mouse model; assay: Subacute MPTP model, dopamine transporter density in the striatum; type: in vivo, mice
Description: To induce intoxication, mice were administered 80 mg/kg of the neurotoxin 1-methyl-4-phenyl-1,2,3,6-tetrahydro-pyridine (MPTP) (in portions of 20 mg/kg in two-hourly intervals, groups 3-6 in FIGS. 1 and 2) resulting in the degeneration of about 50-60% of the neurons of the substantia nigra (maximum degeneration in group 3 in FIGS. 1 and 2). Rotigotine was administered daily in doses of 0.3, 1 or 3 mg/kg respectively over 7 days as a so-called ‘slow-release formulation’ (see embodiment 2) (groups 4-6 in FIGS. 1 and 2). A group of MPTP-treated animals (group 3) was given rotigotine-vehicle solution (see embodiment 2 without rotigotine HCl) and served as a reference. The controls were groups 1, 2 and 7, whereby group 1 is not given any treatment, group 2 is treated with the vehicle-solutions for MPTP and rotigotine, and group 7 was exclusively given rotigotine. The animals were sacrificed on day 8, their brains removed and frozen. Frozen sections were incubated with 100 pm[^125I] PE21 ([^125I]-(E)-N(3-iodoprop-2-enyl)-2β-carboxymethyl-3β-(4′-methylphenyl)-nortropane) in a phosphate buffer, pH 7.4 in order to mark the quantity of dopamine transporters still present in the striatum as an indicator of the quantity of functioning nerve endings. […] This is clear evidence of the neuroprotective properties of the substance (FIG. 1 and 2).

CCCN(CCc1cccs1)[C@H]1CCc2c(O)cccc2C1 [rotigotine, (−)5,6,7 ,8-tetrahydro-6-[propyl[2-(2-thienyl)ethyl]amino]-1-naphthol]
Content of preproenkephalin ([1]; after the treatment and after the wash-out phase): tendency toward normalization | Density of the nerve endings in the striatum ([1]; treated versus untreated animals): much higher | Motor activity of the animals ([1]; under treatment with daily injections and in the following wash-out phase): significantly improved | UPDRS scores [2]: improvement | Number of degenerating neurons ([3]; MPTP intoxication + rotigotine 0.3 mg/kg, single administration): 66.7 | Number of degenerating neurons ([3]; MPTP intoxication + rotigotine 1.0 mg/kg, single administration): 76.8 | Number of degenerating neurons ([3]; MPTP intoxication + rotigotine 3.0 mg/kg, single administration): 34.9 | Number of degenerating neurons ([3]; MPTP-vehicle + rotigotine 3.0 mg/kg (no MPTP)): 3.8 | Number of degenerating neurons lower after application of rotigotine ([3]; acute MPTP model, versus MPTP without rotigotine): approximately 50% | Number of degenerating neurons in the mesencephalon ([3]; acute phase after MPTP, after administration of rotigotine): reduced | Staining of the tyrosine hydroxylase (dopaminergic neurons) ([3]; treated versus untreated animals, 24 hours after MPTP): did not identify any differences between the treated and untreated animals | Survival of the neurons and the nerve endings ([4]; 0.3, 1 or 3 mg/kg daily over 7 days, slow-release formulation): improves the survival of the neurons and the nerve endings in relation to the dose | Dopaminergic innervation of the striatum (density of the dopamine transporter) ([4]; subacute phase after MPTP): virtually completely retained or restored
